{
  "source": "paper PMC12024912",
  "about": "“Druggability Studies of Benzene Sulfonamide Substituted Diarylamide (E3) as a Novel Diuretic” (Biomedicines, 2025)",
  "key": {"[1]": {"system": "rat hyponatremia model caused by SIADH", "experiment": "Rat hyponatremia model caused by SIADH (dDAVP)", "format": "in vivo", "method": "The protocol for dDAVP-induced hyponatremia was adapted from a previous study, with tolvaptan chosen as the positive control. Preliminary experiments determined the dose of dDAVP (0.25 ng/h). Under isoflurane anesthesia, a 0.5 μg/mL dDAVP solution was injected subcutaneously using an osmotic minipump (ALZET 2002, Cupertino, CA, USA; 200 μL, low rate of 0.5 μL/h for […]). Rats were housed individually in metabolic cages to collect urine. Before using the pump, they were given 62.5 mL/d 1.0 kcal/mL of liquid food. After pump implantation, the rats received 40 mL of 2.1 kcal/mL of liquid feed daily. The rats were divided into five groups: control group (sham operation), model group (0.5% poloxamer, solvent), 4 mg/kg tolvaptan group, 4 mg/kg E3 group, and 20 mg/kg E3 group. E3 was administered orally every 8 h, while tolvaptan was given intragastrically once daily. At the end of the experiment, the rats were sacrificed."}, "[2]": {"experiment": "Tissue distribution study in rats", "format": "in vivo, rat", "method": "Male SD rats were randomly divided into four groups and received a single oral dose of E3 at 4 mg/kg. Blood and tissue samples (i.e., heart, liver, kidney, spleen, lung, brain, testis, skin, muscle, leg bone, stomach, small intestine, and colon) were collected at 0.5 h, 2 h, 6 h, and 24 h after dosing. Tissues were perfused with cold saline, blotted, weighed, and homogenized (10 vol/wt ice-cold H2O; T10 homogenizer, IKA, Staufen, Germany). The rats’ right shin bone was decalcified in methanol (4 °C, 12 h). Processed samples (−80 °C storage) underwent LC-MS/MS analysis as described.\nThe analyte E3 and IS were dissolved in DMSO to generate the stock solutions. The working calibration of E3 was gradient-diluted with MeOH/H2O (1:1, v/v). Three microliters of working solutions were spiked with 27 μL of the blank rat plasma to establish the calibration standards. The final concentrations of the standard samples were 1, 2, 5, 10, 50, 250, 500, and 1000 ng/mL. Quality control samples (3/100/800 ng/mL) were prepared using identical protein precipitation protocols. Briefly, 30 μL calibrators and biological matrices were mixed with 450 μL stop solution, vortexed (5 min), and centrifuged (18,000× g, 10 min, 4 °C). Processed supernatants (2 μL injection volume) were subjected to LC-MS/MS analysis.\nThe analysis was conducted by an Xevo TQ-S Cronos Triple Quadrupole Mass Spectrometer coupled with an ACQUITY UPLC (Waters Corp, Milford, MA, USA). The chromatographic separation was conducted in an ACQUITY UPLC BEH C18 1.7 µm column (Waters, Milford, MA, USA) at 40 °C with a flow rate of 0.4 mL/min. The mobile phases were 0.1% (v/v) formic acid in water (A) and pure ACN (B). […] An electrospray ionization (ESI) source with multiple–reaction monitoring (MRM) in positive–ion mode was employed to quantify the analytes with the transitions of m/z 385.11 > 244.19 and m/z 271.136 > 91.01 for E3 and IS, respectively. The optimized cone voltage is 10 V and 24 V for E3 and IS, respectively. The collision energy is 12 V and 32 V for E3 and IS, respectively. MassLynx v4.2 (Waters Corp, Milford, MA, USA) was used for data acquisition and analysis."}, "[3]": {"experiment": "Subacute oral toxicity test in mice", "format": "in vivo", "settings": "male, mouse, in vivo, 1000 mg/kg, oral, 30 d, read-out: no observed adverse effect level (NOAEL)", "method": "(§1) The subacute oral toxicity test was performed according to “Guidance on Repeated Dose Toxicity Study for Pharmaceuticals” (2014). […] Eighteen male mice were evenly divided into two groups. Mice of the control group were orally administered with solvent (0.5% CMC-Na). Another group was orally administered with E3 1000 mg/kg. The solvent or E3 was administered once a day for 30 continuous days and withdrawn for 14 d for recovery. After the 30-day treatment, 12 mice (6/group) were chosen at random and sacrificed for necropsy.\n(§2) During the study, the clinical symptoms, morbidity, and mortality of mice were observed twice a day at the side of the cage. Changes in appearance, behavior, appetite, gait, secretions, and excretions of the rats were meticulously documented. The body weights were measured before the start of the experiment, and the weights were measured every 2 d thereafter. Echocardiography was performed and evaluated every 10 d. Under anesthesia, blood samples were taken before the autopsy for hematological and clinical biochemistry analysis by an automated hematology analyzer (HEMAVET 950FS, Drew Scientific, TX, USA) and an automated biochemical analyzer (BS-180, Mindray Diagnostics, Shenzhen, China). The following organs were weighed: heart, liver, kidney, spleen, lung, thymus gland, testis, and brain. Furthermore, the corresponding organ/body weight ratio was computed. A comprehensive histopathological analysis was performed on vital tissues and organs."}, "mice [4]": {"system": "mice", "experiment": "Subacute oral toxicity test in mice", "format": "in vivo", "method": "as §1, §2"}, "mice [5]": {"system": "mice", "experiment": "Mouse sperm malformation assay", "settings": "mouse, in vivo, po, 2000 mg/kg/day", "method": "Male mice were randomly divided into three groups: control group (0.5% CMC-Na), E3 2000 mg/kg group, and positive group (50 mg/kg cyclophosphamide (CP), administered via intraperitoneal injection). E3 and the control group were administered once daily by intragastric gavage. All mice received treatment for 5 consecutive days. After the initial dosing period, […], the mice were euthanized, and evaluation of sperm parameters was performed as follows:\nCaudal epididymides were dissected into fragments in physiological saline and incubated (37 °C, 5% CO2, 10 min). Spermatozoa were isolated through nylon mesh filtration. Semen parameters were quantified using computer-assisted semen analysis (CASA). Eosin-stained smears (20 μL sperm suspension) were analyzed to examine sperm morphology. […] Sperm shape abnormalities, such as banana, headless, without a hook, amorphous, double-tailed, and fat head, were identified and counted. In addition, the testis was reserved for morphological analysis. The spermatogenesis was graded from 1 to 10 using the Johnsen score."}, "[6]": {"settings": "SIADH rats, E3 4 or 20 mg/kg every 8 h, tolvaptan 4 mg/kg once daily, vs model rats"}},
  "note": "“Also recorded” adds a separate entry of the source.",
  "data": [
    {"smiles": "CC(=O)c1ccc(C(=O)Nc2cccc(NS(=O)(=O)c3ccccc3)c2)o1", "note": "[Compound E3, 5-acetyl-N-(3-(phenylsulfonamido)phenyl)furan-2-carboxamide]", "values": [
      {"measurement": "hyponatremia in SIADH rats", "setting": "[1]; E3 4 or 20 mg/kg orally every 8 h, tolvaptan 4 mg/kg once daily, vs model", "result": "significantly alleviated"},
      {"measurement": "serum osmolality", "setting": "[1]; [6]", "result": "significantly increased"},
      {"measurement": "serum sodium concentration", "setting": "[1]; [6]", "result": "significantly increased"},
      {"measurement": "blood urea levels", "setting": "[1]; SIADH rats, between experimental groups before and after treatment", "result": "no significant difference"},
      {"measurement": "H&E staining of kidney and liver", "setting": "[1]; SIADH rats, except dilatation of collecting ducts", "result": "normal tissue structures"},
      {"measurement": "permeability to the blood–brain barrier (BBB) and blood–testis barrier (BTB)", "setting": "[2]; inferred from tissue distribution", "result": "lower permeability; also recorded: low permeability"},
      {"measurement": "concentration in kidney relative to other tissues", "setting": "[2]; single oral 4 mg/kg", "result": "highest concentration"},
      {"measurement": "distribution in the brain, testis", "setting": "[2]; single oral 4 mg/kg", "result": "relatively low distribution"},
      {"measurement": "time of peak drug concentration in most tissues", "setting": "[2]; single oral 4 mg/kg, post-administration", "result": 2, "unit": "h"},
      {"measurement": "NOAEL at 30 d", "setting": "[3]", "result": 1000, "unit": "mg/kg/day"},
      {"measurement": "appearance, behavior, secretions, and excretions", "setting": "mice [4]; 1000 mg/kg daily oral, 30 days", "result": "no apparent abnormality"},
      {"measurement": "body weight or organ indexes", "setting": "mice [4]; 1000 mg/kg daily oral, 30 days", "result": "no significant change"},
      {"measurement": "histopathology of brain, lung, heart, spleen, liver, kidney, testis", "setting": "mice [4]; 1000 mg/kg daily oral, 30 days", "result": "No histopathological toxic lesion"},
      {"measurement": "blood parameters and blood biochemical indexes", "setting": "mice [4]; 1000 mg/kg daily oral, 30 days, vs control", "result": "no significant changes"},
      {"measurement": "left ventricular ejection fraction and fractional shortening (cardiac ultrasound)", "setting": "mice [4]; 1000 mg/kg daily, during and after administration", "result": "no significant abnormality"},
      {"measurement": "EOS", "setting": "mice [4]; 1 g/kg, 30 d, mean, n=9", "result": 0.13, "unit": "%"},
      {"measurement": "HB", "setting": "mice [4]; 1 g/kg, 30 d, mean, n=9", "result": 80.11, "unit": "g/L"},
      {"measurement": "HCT", "setting": "mice [4]; 1 g/kg, 30 d, mean, n=9", "result": 41.04, "unit": "%"},
      {"measurement": "LYM", "setting": "mice [4]; 1 g/kg, 30 d, mean, n=9", "result": 74.12, "unit": "%"},
      {"measurement": "MCH", "setting": "mice [4]; 1 g/kg, 30 d, mean, n=9", "result": 9.96, "unit": "pg"},
      {"measurement": "MCHC", "setting": "mice [4]; 1 g/kg, 30 d, mean, n=9", "result": 195.33, "unit": "g/L"},
      {"measurement": "MCV", "setting": "mice [4]; 1 g/kg, 30 d, mean, n=9", "result": 51.09, "unit": "fL"},
      {"measurement": "MONO", "setting": "mice [4]; 1 g/kg, 30 d, mean, n=9", "result": 3.02, "unit": "%"},
      {"measurement": "MPV", "setting": "mice [4]; 1 g/kg, 30 d, mean, n=9", "result": 3.01, "unit": "fL"},
      {"measurement": "NEU", "setting": "mice [4]; 1 g/kg, 30 d, mean, n=9", "result": 22.71, "unit": "%"},
      {"measurement": "PLT", "setting": "mice [4]; 1 g/kg, 30 d, mean, n=9", "result": "1313.22 109/L"},
      {"measurement": "RBC", "setting": "mice [4]; 1 g/kg, 30 d, mean, n=9", "result": "8.03 1012/L"},
      {"measurement": "RDW", "setting": "mice [4]; 1 g/kg, 30 d, mean, n=9", "result": 16.07, "unit": "%"},
      {"measurement": "WBC", "setting": "mice [4]; 1 g/kg, 30 d, mean, n=9", "result": "8.37 109/L"},
      {"measurement": "delayed toxicity (14 d recovery period)", "setting": "mice [4]; after 30 d of 1000 mg/kg", "result": "no delayed toxicity"},
      {"measurement": "testicular tissue, H&E staining", "setting": "mice [5]", "result": "no significant differences"}
    ]}
  ]
}
